Source: ChEMBL document CHEMBL1201862, “PubChem BioAssay data set” (2004)
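Tested at 5 concentrations; 48 h exposure; 96-well plates; endpoints linearly interpolated, else capped at highest concentration. At the GI50, growth is halved.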 Activity calls are given as the source filed them. Rule as the data show it: active = GI50 up to about 1.1 µM and inactive = higher.

Legend:
Assay in all cases: NCI tumour cell line growth inhibition, 48 h
A498 = system: A498
A549 = system: A549
ACHN = system: ACHN
BT-549 = system: BT-549
CCRF-CEM = system: CCRF-CEM
DU-145 = system: DU-145
EKVX = system: EKVX
HOP-62 = system: HOP-62
KM12 = system: KM12
LOX IMVI = system: LOX IMVI
MDA-MB-231 = system: MDA-MB-231
MDA-MB-435 = system: MDA-MB-435
NCI-H460 = system: NCI-H460
PC-3 = system: PC-3
RPMI-8226 = system: RPMI-8226
SF-268 = system: SF-268
SF-539 = system: SF-539
SK-MEL-5 = system: SK-MEL-5
SNB-19 = system: SNB-19
SK-OV-3 = system: SK-OV-3

Measured: GI50

CC(C)(C)OC(=O)N1CCC(C(=O)O)CC1
inactive: A498 > 100 µM | A549 > 100 µM | ACHN > 100 µM | BT-549 > 100 µM | CCRF-CEM > 100 µM | DU-145 > 100 µM | EKVX > 100 µM | HOP-62 > 100 µM | KM12 > 100 µM | LOX IMVI > 100 µM | MDA-MB-231 > 100 µM | MDA-MB-435 > 100 µM | NCI-H460 > 100 µM | PC-3 > 100 µM | RPMI-8226 > 100 µM | SF-268 > 100 µM | SF-539 > 100 µM | SK-MEL-5 > 100 µM | SNB-19 > 100 µM

CC(=O)Nc1ccc(NCC(=O)Nn2cnc3ccc(S(=O)(=O)Nc4ccc(NC(C)=O)cc4)cc3c2=O)cc1
inactive: A549 > 100 µM | ACHN > 100 µM | BT-549 > 100 µM | CCRF-CEM > 100 µM | DU-145 > 100 µM | EKVX > 100 µM | HOP-62 > 100 µM | KM12 > 100 µM | LOX IMVI > 100 µM | MDA-MB-231 > 100 µM | MDA-MB-435 > 100 µM | NCI-H460 > 100 µM | PC-3 > 100 µM | RPMI-8226 > 100 µM | SF-268 > 100 µM | SF-539 > 100 µM | SK-OV-3 > 100 µM | SNB-19 > 100 µM

O=C(O)/C=C\C(=O)Nn1c(Cc2ccc(Cl)cc2)n[nH]c1=O
inactive: A498 > 100 µM | A549 > 100 µM | BT-549 > 100 µM | CCRF-CEM > 100 µM | DU-145 > 100 µM | EKVX > 100 µM | HOP-62 > 100 µM | MDA-MB-231 > 100 µM | MDA-MB-435 > 100 µM | NCI-H460 > 100 µM | PC-3 > 100 µM | SF-268 > 100 µM | SF-539 > 100 µM | SK-MEL-5 > 100 µM | SK-OV-3 > 100 µM

COC(=O)C(Cc1ccc(Oc2cc(CC(NC(=O)c3ccccc3)C(=O)OC)ccc2OC)cc1)NC(=O)c1ccccc1 (stereo unspecified)
inactive: A498 46.3 µM | A549 25.7 µM | ACHN 6.82 µM | BT-549 26.7 µM | DU-145 16.9 µM | EKVX 29.8 µM | HOP-62 38.3 µM | KM12 37.5 µM | LOX IMVI 8.26 µM | MDA-MB-231 21.9 µM | MDA-MB-435 18.4 µM | NCI-H460 22.8 µM | PC-3 22.7 µM | RPMI-8226 3.03 µM | SF-268 19.7 µM | SF-539 30.1 µM | SK-MEL-5 18.2 µM | SK-OV-3 > 84.9 µM | SNB-19 35.5 µM

CCOC(=O)/C=C(/C(=O)OCC)n1c(=O)c(C)cn(C2CC(N=[N+]=[N-])C(CO)O2)c1=O (stereo unspecified)
inactive: A498 44.1 µM | A549 33.9 µM | ACHN 32.9 µM | BT-549 48.6 µM | DU-145 43.5 µM | EKVX 28.1 µM | HOP-62 59.7 µM | KM12 50.1 µM | LOX IMVI 27.5 µM | MDA-MB-231 20.7 µM | MDA-MB-435 29.6 µM | NCI-H460 47.4 µM | PC-3 13.5 µM | RPMI-8226 17.4 µM | SF-268 44.8 µM | SF-539 22.1 µM | SK-OV-3 > 100 µM | SNB-19 > 100 µM

CCc1ccc2oc(=O)ccc2c1
inactive: A498 > 100 µM | A549 > 100 µM | ACHN > 100 µM | BT-549 > 100 µM | CCRF-CEM > 100 µM | DU-145 > 10 µM | EKVX 32.2 µM | HOP-62 > 100 µM | KM12 > 100 µM | LOX IMVI > 100 µM | MDA-MB-231 > 10 µM | MDA-MB-435 > 100 µM | NCI-H460 > 100 µM | PC-3 > 100 µM | RPMI-8226 91 µM | SF-268 > 100 µM | SF-539 > 100 µM | SK-MEL-5 > 100 µM | SNB-19 > 100 µM

Cc1cc(C)nc(NS(=O)(=O)c2ccc(NNc3c4ccccc4nc4c(C(=O)Nc5ccc(S(=O)(=O)Nc6ncccn6)cc5)cccc34)cc2)n1
inactive: A549 38.7 µM | ACHN 23.3 µM | BT-549 36.8 µM | CCRF-CEM 22.8 µM | DU-145 31.8 µM | EKVX 19.5 µM | HOP-62 33.5 µM | KM12 34.5 µM | LOX IMVI 20.7 µM | MDA-MB-231 31.3 µM | MDA-MB-435 21.5 µM | NCI-H460 25.6 µM | PC-3 26.5 µM | RPMI-8226 29.9 µM | SF-268 31.9 µM | SF-539 27 µM | SK-MEL-5 21.2 µM | SK-OV-3 31.5 µM | SNB-19 34.6 µM

COc1ccc(C2N(c3ccc(C)c(N=C=O)c3)C(=O)N3C(c4ccc(OC)cc4)N(c4ccc(C)c(N=C=O)c4)C(=O)N23)cc1 (stereo unspecified)
inactive: A498 44 µM | A549 > 100 µM | ACHN > 100 µM | BT-549 > 100 µM | CCRF-CEM > 100 µM | DU-145 > 100 µM | EKVX > 100 µM | HOP-62 > 100 µM | KM12 > 100 µM | LOX IMVI > 100 µM | MDA-MB-231 > 100 µM | MDA-MB-435 > 100 µM | NCI-H460 > 100 µM | PC-3 > 100 µM | RPMI-8226 > 100 µM | SF-268 > 100 µM | SF-539 > 100 µM | SK-MEL-5 > 100 µM | SNB-19 > 100 µM
